Test results as given in the supplement of paper PMC11061612.

Key:
Assay in all cases: Bliss excess, mean over the matrix (fraction); higher = more synergy
[1] = system: C-33-A (Cervical Carcinoma)
Summary of the method: (§1)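 Cell lines grown in DMEM/F12 or RPMI with 10% FBS were plated in 1536-well plates and held 24 hours at 37°C, 5% CO2 before 72 hours of exposure to two-drug dose matrices, with DMSO typically at 0.2%. CellTiter-Glo 2.0 luminescence gave viability, which was converted to inhibition. Vehicle wells were set to 0 and blank wells to 1. Combination Emax is the second-highest inhibition in the matrix, and Bliss excess is the observed combination effect minus the expected EA + EB − EA·EB, where EA and EB are the single-agent effects.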

[2] = system: COR-L88 (Small Cell Lung Carcinoma)
Summary of the method: as §1

[3] = system: CPC-N (Small Cell Lung Carcinoma)
Summary of the method: as §1

GAK (Melanoma) = system: GAK (Melanoma)
Summary of the method: as §1

[4] = system: HPAF-II (Pancreatic Carcinoma)
Summary of the method: as §1

[5] = system: IA-LM (Non-Small Cell Lung Carcinoma)
Summary of the method: as §1

IST-MEL1 (Melanoma) = system: IST-MEL1 (Melanoma)
Summary of the method: as §1

[6] = system: LCLC-103H (Non-Small Cell Lung Carcinoma)
Summary of the method: as §1

[7] = system: LS-1034 (Colorectal Carcinoma)
Summary of the method: as §1

[8] = system: MDA-MB-415 (Breast Carcinoma)
Summary of the method: as §1

[9] = system: MONO-MAC-6 (Acute Myeloid Leukemia)
Summary of the method: as §1

[10] = system: MS-1 (Small Cell Lung Carcinoma)
Summary of the method: as §1

[11] = system: NAMALWA (Burkitt's Lymphoma)
Summary of the method: as §1

[12] = system: NCI-H3118 (Head and Neck Carcinoma)
Summary of the method: as §1

[13] = system: SCC-4 (Oral Cavity Carcinoma)
Summary of the method: as §1

[14] = system: SK-CO-1 (Colorectal Carcinoma)
Summary of the method: as §1

[15] = system: SKG-IIIa (Cervical Carcinoma)
Summary of the method: as §1

[16] = system: SNU-423 (Hepatocellular Carcinoma)
Summary of the method: as §1

[17] = system: T84 (Colorectal Carcinoma)
Summary of the method: as §1

[18] = system: ZR-75-30 (Breast Carcinoma)
Summary of the method: as §1

Compound	Bliss excess [1]	Bliss excess [2]	Bliss excess [3]	Bliss excess (GAK (Melanoma))	Bliss excess [4]	Bliss excess [5]	Bliss excess (IST-MEL1 (Melanoma))	Bliss excess [6]	Bliss excess [7]	Bliss excess [8]	Bliss excess [9]	Bliss excess [10]	Bliss excess [11]	Bliss excess [12]	Bliss excess [13]	Bliss excess [14]	Bliss excess [15]	Bliss excess [16]	Bliss excess [17]	Bliss excess [18]
Cc1c2c(nn1C)CSCc1cc(n(C)n1)CSc1cc(c3ccccc3c1)OCCCc1c(C(=O)O)n(C)c3c-2c(Cl)ccc13 [AZD5991] + CS(=O)(=O)CCNCc1ccc(-c2ccc3ncnc(Nc4ccc(OCc5cccc(F)c5)c(Cl)c4)c3c2)o1 [Lapatinib] (first compound max 1 µM, 7x7, partner max 10 µM)	0.0485	-0.0283	-0.0429	0.015	-0.0209	-0.0292	-0.005	-0.025	-0.0332	0.0015	0.0012	-0.0273	-0.0204	0.0426	0.0449	0.0034	0.0014	-0.0272	0.0239	0.063
CS(=O)(=O)CCNCc1ccc(-c2ccc3ncnc(Nc4ccc(OCc5cccc(F)c5)c(Cl)c4)c3c2)o1 [Lapatinib] + Cn1cnc2c(F)c(Nc3ccc(Br)cc3Cl)c(C(=O)NOCCO)cc21 [Selumetinib] (first compound max 10 µM, 7x7, partner max 10 µM)	0.0282	-0.0301	-0.0085	-0.0769	0.109	-0.0659	0.0279	-0.0744	-0.0089	-0.0575	0.0017	-0.0277	-0.0003	0.0206	0.0318	0.0335	0.001	-0.0083	0.058	-0.0329
Cc1cc2ncnn2cc1Nc1ncc2c(n1)n(C1CCOCC1)c(=O)n2C [AZD7648] + COc1cc([C@@H]2c3cc4c(cc3[C@@H](O[C@@H]3O[C@@H]5CO[C@@H](C)O[C@H]5[C@H](O)[C@H]3O)[C@H]3COC(=O)[C@H]23)OCO4)cc(OC)c1O [Etoposide] (first compound max 10 µM, 7x7, partner max 10 µM)	0.0997	-0.0241	0.0611	0.0732	0.0098	-0.0116	0.0192	0.0526	-0.0205	0.0025	0.159	0.0655	0.0745	0.0669	0.0043	0.0429	0.0558	0.0551	-0.0105	-0.0044
Cc1c2c(nn1C)CSCc1cc(n(C)n1)CSc1cc(c3ccccc3c1)OCCCc1c(C(=O)O)n(C)c3c-2c(Cl)ccc13 [AZD5991] + CC(=O)O[C@H]1C(=O)[C@@]2(C)[C@H]([C@H](OC(=O)c3ccccc3)[C@]3(O)C[C@H](OC(=O)[C@H](O)[C@@H](NC(=O)c4ccccc4)c4ccccc4)C(C)=C1C3(C)C)[C@]1(OC(C)=O)CO[C@@H]1C[C@@H]2O [Paclitaxel] (first compound max 1 µM, 7x7, partner max 3 µM)	-0.0095	0.0486	-0.0539	0.0893	0.0356	-0.0452	-0.0215	-0.0118	-0.0473	0.0268	0.0152	-0.0135	0.0041	0.0079	-0.0628	-0.052	-0.036	-0.0344	-0.0379	0.0617
CN(CCO)CC[C@H](CSc1ccccc1)Nc1ccc(S(=O)(=O)NC(=O)c2ccc(N3CCC([C@@H](O)c4ccccc4-c4ccc(Cl)cc4)CC3)cc2)cc1S(=O)(=O)C(F)(F)F [AZD4320] + CS(=O)(=O)CCNCc1ccc(-c2ccc3ncnc(Nc4ccc(OCc5cccc(F)c5)c(Cl)c4)c3c2)o1 [Lapatinib] (first compound max 1 µM, 7x7, partner max 10 µM)	0.0074	0.0911	0.052	0.0059	0.031	-0.0137	-0.0011	-0.0224	0.0441	0.0355	0.103	0.068	-0.015	0.0041	0.0692	0.0785	-0.0081	0.017	-0.0061	0.0458
CS(=O)(=O)CCNCc1ccc(-c2ccc3ncnc(Nc4ccc(OCc5cccc(F)c5)c(Cl)c4)c3c2)o1 [Lapatinib] + NC1(c2ccc(-c3nc4ccn5c(=O)[nH]nc5c4cc3-c3ccccc3)cc2)CCC1 [MK-2206] (first compound max 10 µM, 7x7, partner max 10 µM)	0.0295	0.0151	-0.0202	0.0347	0.0089	-0.0179	0.0095	-0.0428	0.0301	0.0306	0.0302	0.0368	0.0388	0.0618	0.0365	0.0289	0.0359	0.0232	0.0453	-0.0604
